From patent US8530622B2, “Proteasome-activating anti-aging peptides and compositions containing same” (ISP Investments Inc., priority 2009, dated 2013)
Ends that are not written are not given here.

Key:
20S proteasome = target: T1, 20S proteasome (Homo sapiens, UniProt P28072+P28074+Q99436); assay: Enzymatic activity of 20S proteasome on aged keratinocytes maintained in culture (AMC-labeled substrates); assay type: cell-based; conditions: 15 days culture, 1% peptide
T1 construct: After incubation of the cellular lysate with the synthetic substrate specific for the activity studied; endogenous in cells; host or cells: experimentally aged normal human keratinocytes (NHK) from human skin biopsies; activity measured in the cell lysate
Description: (§1) Normal Human Keratinocyte (NHK), cells are isolated from human skin biopsies. These cells are maintained in culture in a special keratinocyte-SFM medium (Invitrogen) at 37° C. under a humidified atmosphere of 5% CO2. Aged NHK cells are obtained by performing a series of repeated sub-cultures. Briefly the cells are seeded in 75 cm^2 flasks, at low density and cultured from 5 to 10 days between 2 passages. The cells are treated or not treated by the active principle, by adding the active principle directly into the culture medium 3 times per week. The cells are then maintained under these conditions for 45 days.
Experimentally aged keratinocytes maintained in culture for 15 days are treated with 1% of peptide SEQ ID No. 1. The enzymatic activities of 20S proteasome are then studied. In fact, 20S proteasome is the subunit responsible for enzymatic hydrolysis. Three enzymatic activities may be studied: Trypsin-like, chymotrypsin-like and peptidylglutamyl-peptide hydrolase (PGPH) activity. We are proposing to study these activities by a specific enzymatic assay of each activity.
The aged keratinocytes are maintained in culture for 15 days. The cell treatment is carried out by adding a solution at 1% of peptide SEQ ID No. 1 directly into the medium, renewed 3 times per week for the time of the experiment.
The assay of each activity was carried out by utilizing specific substrates labeled by a fluorescent compound 7-amido-4-methylcoumarin (AMC). After cleavage, the AMC excitation wavelength is 350 nm, the fluorescence is read at 440 nm. The fluorescence intensity is proportional to the quantity of fluorochrome obtained and consequently, this quantity is proportional to the quantity of hydrolyzed substrate.
The synthetic peptide Boc-Leu-Arg-Arg-AMC is specific for trypsin activity. […]
The cells are detached from the support in an extraction buffer. […] After incubation of the cellular lysate with the synthetic substrate specific for the activity studied, fluorescence is read with the Synergy spectrophotometer (BIOTEK, Vermont, USA) at 440 nm.

[1] = system: experimentally aged keratinocytes; assay: Antiaging effect: beta-galactosidase (X-gal) labeling of experimentally aged keratinocytes in culture; assay type: cell-based, human; conditions: keratinocytes aged 20 days, 1% peptide 3 times per week
Description: as §1
A study of the antiaging effect of the active principle was carried out by evaluating the expression of the beta-galactosidase protein on experimentally aged keratinocytes in culture. In fact, beta-galactosidase activity is known to be present in senescent cells while galactosidase activity is not found in pre-senescent, quiescent or immortal cells.
Keratinocytes experimentally aged in 8-well labteck are cultured and maintained for 20 days in the presence or not of 1% peptide of SEQ ID No. 1. The treatment is carried out 3 times per week by direct addition into the medium.
Untreated cells are maintained in culture for the same experiment time and will be used as controls. […]

volunteers = assay: Clinical test: wrinkle and fine line measurement by QUANTIRIDE; assay type: in vivo, human; set-up: Depth of wrinkles, Measurement / Number of wrinkles, Measurement: unit not given here; conditions: D 23-D 0, 2 mg/cm^2 twice a day, 12 volunteers
Description: 12 volunteers aged from 29 to 56 years applied either a placebo or the peptidic active principle of sequence ID No. 1 twice a day, morning and night, at a dose of 2 mg/cm^2 for 24 days. A clinical evaluation of the results enabled several wrinkle and fine line parameters to be measured.
The wrinkle and fine line measurement was carried out by QUANTIRIDE, which is an evaluation method that enables the number, length and depth of wrinkles to be measured by making a replica of the skin before and after treatment by using a silicone polymer.

Asp-Cys-Arg-NH2 [SEQ ID No. 1]
trypsin-like activity of 20S proteasome, increase (20S proteasome; substrate Boc-Leu-Arg-Arg-AMC): 155.3% | chymotrypsin-like activity of 20S proteasome, increase (20S proteasome; substrate Suc-Leu-Leu-Val-Try-AMC): 130% | peptidylglutamyl-peptide hydrolase activity of 20S proteasome, increase (20S proteasome; substrate Z-Leu-Leu-Glu-AMC): 144.6% | beta-galactosidase activity in treated cells compared to untreated cells [1]: strongly reduced | Depth of wrinkles, Measurement (volunteers): −6.5557 | Length of wrinkles, Measurement (volunteers): −0.104 mm | Number of wrinkles, Measurement (volunteers): −9.5833 | Depth of wrinkles, % of volunteers with improvement (volunteers; listed as Active peptide): 75% | Length of wrinkles, % of volunteers with improvement (volunteers; listed as Active peptide): 83.3% | Number of wrinkles, % of volunteers with improvement (volunteers; listed as Active peptide): 75% | Depth of wrinkles, % of volunteers with improvement (volunteers; listed as active principle): 75% | Length of wrinkles, % of volunteers with improvement (volunteers; listed as active principle): 83.3% | Number of wrinkles, % of volunteers with improvement (volunteers; listed as active principle): 75%
